From patent US11180488B2, “Isoxazole o-linked carbamoyl cyclohexyl acids as LPA antagonists” (BRISTOL-MYERS SQUIBB COMPANY, priority 2017, dated 2021)

Biological target: T1, human LPA1 (Homo sapiens, UniProt Q92633)
T1 construct: expressed in transfected cells; host or cells: Chinese hamster ovary (CHO) cells
Assay: LPA1 functional antagonist assay (LPA-induced calcium flux)
Type: cell-based
Conditions: CHO cells overexpressing human LPA1; calcium flux induced by 10 nM LPA; read-out: LPA1 IC50
Experimental: The effectiveness of compounds of the present invention as LPA1 inhibitors can be determined in an LPA1 functional antagonist assay as follows:
Chinese hamster ovary cells overexpressing human LPA1 were plated overnight (15,000 cells/well) in poly-D-lysine coated 384-well microplates (Greiner bio-one, Cat #781946) in DMEM/F12 medium (Gibco, Cat #11039). Following overnight culture, cells were loaded with calcium indicator dye (AAT Bioquest Inc, Cat #34601) for 30 minutes at 37° C. The cells were then equilibrated to room temperature for 30 minutes before the assay. Test compounds solubilized in DMSO were transferred to 384 well non-binding surface plates (Corning, Cat #3575) using the Labcyte Echo acoustic dispense and diluted with assay buffer [1×HBSS with calcium/magnesium (Gibco Cat #14025-092), 20 mM HEPES (Gibco Cat #15630-080) and 0.1% fatty acid free BSA (Sigma Cat #A9205)] to a final concentration of 0.5% DMSO. Diluted compounds were added to the cells by FDSS6000 (Hamamatsu) at final concentrations ranging from 0.08 nM to 5 μM. and were then incubated for 20 min at room temperature at which time LPA (Avanti Polar Lipids Cat #857130C) was added at final concentrations of 10 nM to stimulate the cells. […] IC50 values were determined by fitting data to a 4-parameter logistic equation (GraphPad Prism, San Diego Calif.).

T1 sequence (Q92633 whole entry): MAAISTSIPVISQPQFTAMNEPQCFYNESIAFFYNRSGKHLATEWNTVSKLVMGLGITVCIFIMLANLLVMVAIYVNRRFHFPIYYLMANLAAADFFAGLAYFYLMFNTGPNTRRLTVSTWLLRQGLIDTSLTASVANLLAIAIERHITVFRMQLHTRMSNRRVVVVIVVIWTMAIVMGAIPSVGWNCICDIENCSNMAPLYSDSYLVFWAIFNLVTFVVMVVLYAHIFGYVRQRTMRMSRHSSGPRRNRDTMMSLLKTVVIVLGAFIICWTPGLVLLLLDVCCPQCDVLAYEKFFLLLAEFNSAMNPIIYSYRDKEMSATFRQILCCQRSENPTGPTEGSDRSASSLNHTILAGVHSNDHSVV

IC50	Compound
0.088 µM	Cc1noc(-c2cnc(O[C@H]3CCC[C@H](C(=O)O)C3)cn2)c1COC(=O)N(C)C1CCCC1 [Example 55]
0.05 µM	Cc1nc(-c2onc(C)c2COC(=O)N(C)C(C)(C)C)ccc1O[C@H]1CCC[C@H](C(=O)O)C1 [Example 63]
0.15 µM	Cc1noc(-c2cnc(O[C@H]3CCC[C@H](C(=O)O)C3)cn2)c1COC(=O)N(C)CCC(C)C [Example 56]
0.166 µM	Cc1nc(-c2onc(C)c2COC(=O)NC(C)(C)C)ccc1O[C@H]1CCC[C@H](C(=O)O)C1 [Example 60]
0.019 µM	Cc1nc(-c2onc(C)c2COC(=O)N(C)Cc2cccc(F)c2)ccc1O[C@H]1CCC[C@H](C(=O)O)C1 [Example 61]
0.026 µM	Cc1noc(-c2ccc(O[C@H]3CCC[C@H](C(=O)O)C3)cn2)c1COC(=O)N(C)C(C1CC1)C1CC1 [Example 57]
0.017 µM	Cc1nc(-c2onc(C)c2COC(=O)N(C)[C@H](C)c2ccccc2)ccc1O[C@H]1CCC[C@H](C(=O)O)C1 [Example 62]
0.008 µM	Cc1noc(-c2ccc(O[C@H]3CCC[C@H](C(=O)O)C3)cn2)c1COC(=O)N(C)CC1CCC1 [Example 58]

Same assay, conditions: CHO cells overexpressing human LPA1; calcium flux induced by 10 nM LPA; read-out: hLPA1 IC50

Compound	IC50
Cc1nc(-c2onc(C)c2COC(=O)N(C)C2CCCC2)ccc1O[C@H]1CCC[C@H](C(=O)O)C1 [Example 12]	0.014 µM
Cc1noc(-c2ccc(O[C@H]3CCC[C@H](C(=O)O)C3)cc2)c1COC(=O)N(C)CCC1CC1 [Example 27]	0.023 µM
Cc1noc(-c2ccc(O[C@H]3CCC[C@H](C(=O)O)C3)cc2)c1COC(=O)N(C)CC1CC1 [Example 37]	0.206 µM
Cc1noc(-c2cnc(O[C@H]3CCC[C@H](C(=O)O)C3)cn2)c1COC(=O)N(C)C(C)C1CC1 (mixture of isomers) [Example 9, (±)-Trans-3-((5-(4-((((1-cyclopropylethyl)(methyl)carbamoyl)oxy)methyl)-3-methyl-isoxazol-5-yl)pyrazin-2-yl)oxy)cyclohexanecarboxylic Acid]	0.085 µM
CCCCCN(C)C(=O)OCc1c(C)noc1-c1ccc(O[C@H]2CCC[C@H](C(=O)O)C2)c(C)n1 [Example 19]	0.01 µM
Cc1noc(-c2ccc(OC3CCCC(F)(C(=O)O)C3)cc2)c1COC(=O)N(C)C1CCCC1 (single isomer, unassigned) [Example 5]	0.133 µM
CCC(CC)N(C)C(=O)OCc1c(C)noc1-c1ccc(O[C@H]2CCC[C@H](C(=O)O)C2)c(C)n1 [Example 13]	0.053 µM
Cc1noc(-c2ccc(O[C@@H]3CCC[C@@](F)(C(=O)O)C3)cc2)c1COC(=O)N(C)C1CCCC1 [Example 6]	0.103 µM
Cc1nc(-c2onc(C)c2COC(=O)N(C)CC2CC2)ccc1O[C@H]1CCC[C@H](C(=O)O)C1 [Example 14]	0.014 µM
Cc1noc(-c2ccc(O[C@H]3CCC[C@H](C(=O)O)C3)cc2)c1COC(=O)N1C[C@H]2C[C@H]2C1 [Example 35]	1.23 µM
Cc1noc(-c2ccc(O[C@H]3CCC[C@H](C(=O)O)C3)cc2)c1COC(=O)N(C)CC1CCC1 [Example 34]	0.082 µM
Cc1noc(-c2ccc(O[C@H]3CCC[C@H](C(=O)O)C3)cc2)c1COC(=O)N(C)C1CCOC1 (stereo partly shown) [Example 31]	0.37 µM
Cc1nc(-c2onc(C)c2COC(=O)N(C)CCC(C)C)ccc1O[C@H]1CCC[C@H](C(=O)O)C1 [Example 20]	0.008 µM
Cc1nc(-c2onc(C)c2COC(=O)N(C)CCC2CC2)ccc1O[C@H]1CCC[C@H](C(=O)O)C1 [Example 10, (1S,3S)-3-((6-(4-((((2-Cyclopropylethyl)(methyl)carbamoyl)oxy)methyl)-3-methylisoxa-zol-5-yl)-2-methylpyridin-3-yl)oxy)cyclohexanecarboxylic Acid]	0.011 µM
Cc1nc(-c2onc(C)c2COC(=O)N(C)Cc2cccc(Cl)c2)ccc1O[C@H]1CCC[C@H](C(=O)O)C1 [Example 17]	0.399 µM
Cc1noc(-c2ccc(O[C@H]3CCC[C@H](C(=O)O)C3)cc2)c1COC(=O)N(C)CCC(C)(C)C [Example 30]	0.06 µM
CCCCN(C)C(=O)OCc1c(C)noc1-c1ccc(O[C@H]2CCC[C@H](C(=O)O)C2)c(C)n1 [Example 15]	0.015 µM

More lines, now with the values ahead:

IC50	Compound
0.57 µM	Cc1noc(-c2ccc(O[C@@H]3CCC[C@@H](CC(=O)O)C3)cc2)c1COC(=O)N(C)C1CCCC1 (racemic) [Example 47, (±)-(Trans)-2-(3-(4-(4-(((cyclopentyl(methyl)carbamoyl)oxy)methyl)-3-methylisoxazol-5-yl)phenoxy)cyclohexyl)acetic Acid]
0.026 µM	Cc1noc(-c2ccc(O[C@@H]3CCC[C@@H](C(=O)O)C3)c(F)c2)c1COC(=O)N(C)C1CCCC1 [Example 38]
0.023 µM	Cc1noc(-c2ccc(O[C@H]3CCC[C@H](C(=O)O)C3)cn2)c1COC(=O)N(C)C1CC(C)(C)C1 [Example 70]
0.0052 µM	Cc1noc(-c2ccc(O[C@H]3CCC[C@H](C(=O)O)C3)cn2)c1COC(=O)N(C)CCC(C)C [Example 45]
2.31 µM	Cc1noc(-c2ccc(OC3CCCC(c4nnn[nH]4)C3)cc2)c1COC(=O)N(C)C1CCCC1 (single isomer, unassigned) [Example 76, (5-(4-((3-(1H-tetrazol-5-yl)cyclohexyl)oxy)phenyl)-3-methylisoxazol-4-yl)methyl cyclopentyl(methyl)carbamate]
0.175 µM	Cc1noc(-c2ccc(O[C@H]3CCC[C@H](C(=O)O)C3)cc2)c1C(C)OC(=O)N(C)CCC(C)C (stereo partly drawn) [Example 50, (1S,3S)-3-(4-(4-(1-((isopentyl(methyl)carbamoyl)oxy)ethyl)-3-methyl-isoxazol-5-yl)phenoxy)cyclohexane-1-carboxylic Acid]
1.63 µM	COC(C)CN(C)C(=O)OCc1c(C)noc1-c1ccc(O[C@@H]2CCC[C@@H](C(=O)O)C2)cc1 (stereo partly shown) [Example 71]
0.472 µM	COCCN(C)C(=O)OCc1c(C)noc1-c1ccc(O[C@@H]2CCC[C@@H](C(=O)O)C2)cc1 [Example 72]
0.06 µM	CCCCN(C)C(=O)OC(C)c1c(C)noc1-c1ccc(O[C@H]2CCC[C@H](C(=O)O)C2)cc1 (stereo partly shown) [Example 52]
1.21 µM	Cc1noc(-c2ccc(O[C@H]3CCC[C@H](C(N)=O)C3)cc2)c1COC(=O)N(C)C1CCCC1 (racemic) [Example 73, (±)-Trans-(5-(4-((3-carbamoylcyclohexyl)oxy)phenyl)-3-methylisoxazol-4-yl)methyl cyclopentyl(methyl)carbamate]
0.032 µM	Cc1noc(-c2ccc(O[C@H]3CCC[C@H](C(=O)O)C3)cc2)c1C(C)OC(=O)N(C)[C@H](C)C1CC1 (stereo partly shown) [Example 51]
0.379 µM	Cc1noc(-c2ccc(OC3CCCC(c4nnn[nH]4)C3)cc2)c1COC(=O)N(C)C1CCCC1 (single isomer, unassigned) [Example 77, (5-(4-((3-(1H-tetrazol-5-yl)cyclohexyl)oxy)phenyl)-3-methylisoxazol-4-yl)methyl cyclopentyl(methyl)carbamate]
0.214 µM	Cc1noc(-c2ccc(O[C@@H]3CCC[C@@H](C(=O)O)C3)cc2)c1COC(=O)N(C)C(C)C1CCC1 (stereo partly shown) [Example 69]
3.25 µM	Cc1noc(-c2ccc(OC3CCCC(C#N)C3)cc2)c1COC(=O)N(C)C1CCCC1 (mixture of isomers) [Example 74, (5-(4-((3-cyanocyclohexyl)oxy)phenyl)-3-methylisoxazol-4-yl)methyl cyclopentyl(methyl)carbamate]
1.49 µM	Cc1noc(-c2ccc(O[C@H]3CCC[C@@H](CC(=O)O)C3)cc2)c1COC(=O)N(C)C1CCCC1 [Example 48]
